Data on four compounds can be found in paper PMC11050087, “Polyphenols from Maackia amurensis Heartwood Protect Neuronal Cells from Oxidative Stress and Prevent Herpetic Infection” (International Journal of Molecular Sciences, 2024).

In general, CC50 refers to the concentration that lowers cell viability or growth by half. In general, IC50 refers to the concentration at which inhibition is half-maximal.

The nature of series [1]: Cytotoxicity against Vero cells (MTT assay). It counts as cell-based. To be noted: African green monkey. On the procedure:
We prepared the stock solutions of the tested compounds (10 mg/mL) in DMSO (Sigma, St. Louis, MO, USA). For the MTT assay and further studies of anti-HSV-1 activity, we diluted the stock solutions with DMEM so that the final concentration of DMSO was 0.5%.
We used MTT assay to determine the cytotoxic effect of the tested compounds against Vero cells. We performed the MTT assay as previously described.
In general terms: Tetrazolium assays rely on reduction of a dye to a coloured formazan, in cell work by metabolically active cells.

For series [2], the system named is HSV-1. Put plainly: Virucidal activity, RT-PCR assay (HSV-1 pretreated with compounds). It counts as cell-based, HSV-1 strain L2. Conditions: for Ct: 72 h; for −ΔCt: vs virus control; for activity at 0.1 µg/mL / activity at 1 µg/mL / activity at 10 µg/mL / log reduction at 0.1 µg/mL / log reduction at 1 µg/mL / log reduction at 10 µg/mL: Human alphaherpesvirus 1, 72 h; for activity at 0.1 µg/mL / activity at 1 µg/mL / activity at 10 µg/mL: read-out: 2^−ΔCt; for log reduction at 0.1 µg/mL / log reduction at 1 µg/mL / log reduction at 10 µg/mL: read-out: log10.

Series [3] relates to 6-OHDA-treated Neuro-2a cells. As to the kind of experiment: Apoptosis profile by flow cytometry (Annexin V & Dead Cell Kit). Conditions: Table 1; polyphenols 10 µM, 6-OHDA 100 µM, 24 h; mean. Type of series: cell-based, murine. On the procedure: We investigated the effect of polyphenolic compounds from M. amurensis on apoptosis profile in 6-OHDA-treated Neuro-2a cells by flow cytometry using fluorescent annexin V conjugate as a fluorescent dye. We observed significant changes in apoptosis profile in Neuro-2a cells after 6-OHDA-treatment. […] Polyphenols 3, 6 and 13 diminished the neurotoxic effect of 6-OHDA-treatment.
The cells were incubated for 1 h in a 6-well plate (5 × 10^4 cells/mL) with polyphenolic compounds (10 µM). Then, 6-OHDA (100 µM) was added, and cell suspension was incubated for 24 h. After incubation, the maintenance media was collected, and the cells were washed by cold PBS twice and incubated with trypsin-EDTA solution. The cell suspension was washed with cold PBS twice again, centrifugated and then used for apoptosis detection by Muse® Annexin V & Dead Cell Kit in accordance with the manufacturer’s instructions (Luminex, Austin, TX, USA). The fluorescence was measured with Muse® Cell Analyzer (Luminex, Austin, TX, USA) and the data were processed by Muse 1.5 Analysis software (Luminex, Austin, TX, USA).

The test system of series [4] is HSV-1. Put plainly: Pretreatment of cells with polyphenolic compounds, CPE inhibition assay. Type of series: cell-based, HSV-1 strain L2. To be noted: for IC50: Human alphaherpesvirus 1, cells pretreated 2 h before infection, CPE assay; for Pretreatment of Cells SI: ratio of CC50 to IC50. How it is done: (§1) In order to study the mechanism of action of these compounds, two additional schemes of treatment of the virus and Vero cells with polyphenols were applied: the compounds were added before virus infection (pretreatment of cells) and after penetration of the virus into host cells (treatment of infected cells). The fourth method of exposure where the virus and polyphenols were added to cells simultaneously (simultaneous treatment) was previously described by us in [22]. The anti-HSV-1 activity of polyphenols was assessed using the cytopathic effect inhibition (CPE) assay.
The monolayer of cells was pretreated with different concentrations of the studied compounds for 2 h at 37 °C. After washing, the cells were infected with 100 TCID50/mL of the virus at 37 °C for 1 h. Then, unabsorbed virus was removed by washing with PBS (Sigma, Saint-Louis, MO, USA), and cells were incubated in the maintenance medium until CPE appeared.

Series [5] relates to HSV-1. As to the kind of experiment: Treatment of virus-infected cells with polyphenols, CPE inhibition assay. To be noted: for IC50: Human alphaherpesvirus 1, compound added after virus adsorption and penetration, CPE assay; for Treatment of Infected Cells SI: ratio of CC50 to IC50. Type of series: cell-based, HSV-1 strain L2. How it is done:
as §1
The monolayer of cells was infected with the virus (100 TCID50/mL) at 37 °C for 1 h, and then the cells were washed with PBS (Sigma, Saint-Louis, MO, USA) and treated with different concentrations of the studied compounds and incubated until CPE appeared.

Values joined by “and” are separate entries in the source; they are usually repeats but may differ in a detail not shown here. Identical values can stand only once.

As for `Oc1ccc(/C=C/c2cc(O)cc(O)c2)cc1` [Compound 1, resveratrol], the 50% cytotoxic concentration (CC50) in series [1] was 123 µg/mL and 540 µM. In series [2] (0.1 µg/mL), the Ct amounted to 18.1 ± 2.2 and the “−ΔCt” value stood at 0. Besides, in series [2] (1 µg/mL), the Ct turned out to be 20.4 ± 2.8 and the “−ΔCt” value was −2.3 ± 0.2. For the same compound, in series [2] (10 µg/mL), the “anti-HSV-1 activity by RT-PCR (in words)” value was “moderate anti-HSV-1 activity”, the Ct is given as 24.6 ± 2.9 and the “−ΔCt” value is recorded as −6.5 ± 0.8. In series [2], the activity at 0.1 µg/mL stood at 100%, the activity at 1 µg/mL worked out at 20.3 ± 2.4%, the activity at 10 µg/mL is 1.1 ± 0.14% and the log reduction at 0.1 µg/mL came out at 0. Moreover, in series [2], the log reduction at 1 µg/mL turned out to be 0.7 ± 0.09 and the log reduction at 10 µg/mL was determined as 1.9 ± 0.2.

On to `O=C1C[C@@H](c2ccc(O)cc2)Oc2cc(O)ccc21` [Compound 6, liquiritigenin], for which, in series [3], the Dead is 0.61 ± 0.13%, the Early apop. amounted to 27.67 ± 1.09 %, the “Late apop./Dead” value is 10.89 ± 0.86% and the Live is on record as 61.83 ± 0.09 %. The “virucidal activity against HSV-1 by RT-PCR (in words)” value in series [2] (0.1, 1 and 10 µg/mL) is “did not demonstrate virucidal activity”.

As for `Oc1cc(O)cc(/C=C/c2ccc3c(c2)O[C@H](c2cc(O)cc(O)c2)[C@@H](c2ccc(O)c(O)c2)O3)c1` [Compound 9, maackin], in series [2] (0.1 µg/mL), the Ct turned out to be 18.6 ± 2.4 and the “−ΔCt” value is recorded as −0.50 ± 0.05. For the same compound, in series [2] (1 µg/mL), the “inhibition of HSV-1 replication by RT-PCR (in words)” value was “inhibited the replication of HSV-1”, the Ct was 25.9 ± 2.8 and the “−ΔCt” value is reported as −7.8 ± 0.9. Also, in series [2] (10 µg/mL), the “reduction in viral DNA” value is recorded as 4.6 log10, the Ct stood at 33.3 ± 4.3 and the “−ΔCt” value was −15.2 ± 1.8. In series [2], the activity at 0.1 µg/mL stood at 70.7 ± 9.2%, the activity at 1 µg/mL was 0.449 ± 0.06%, the activity at 10 µg/mL is 0.00266 ± 0.0003% and the log reduction at 0.1 µg/mL worked out at 0.15 ± 0.02. In addition, in series [2], the log reduction at 1 µg/mL was found to be 2.3 ± 0.3 and the log reduction at 10 µg/mL is 4.6 ± 0.6. Moreover, in series [4], the half-inhibitory concentration (IC50) was 70.3 µg/mL and 145 µM; the “Pretreatment of Cells SI” value was 3.8 and 3.8 ± 0.5. Further, in series [5], the IC50 was 24.5 µg/mL and 50.4 µM; the “Treatment of Infected Cells SI” value came out at 11.0 ± 1.4.

Take `Oc1ccc(/C=C/c2cc(O)cc3c2[C@H](c2cc(O)cc(O)c2)[C@@H](c2ccc(O)c(O)c2)O3)cc1` [Compound 13, scirpusin A]: in series [3], the Dead was determined as 0.73 ± 0.15%, the Early apop. stood at 30.18 ± 1.13 %, the “Late apop./Dead” value is recorded as 12.2 ± 0.34% and the Live is 56.90 ± 1.32 %. In series [1], this compound gave a half-maximal cytotoxic concentration (CC50) of 424 ± 50.1 µM. In series [2] (0.1 µg/mL), the Ct is given as 18.6 ± 2.4 and the “−ΔCt” value is reported as −0.50 ± 0.05. In addition, in series [2] (1 µg/mL), the “inhibition of HSV-1 replication by RT-PCR (in words)” value was “inhibited the replication of HSV-1”, the Ct is on record as 25.8 ± 3.3 and the “−ΔCt” value is listed as −7.7 ± 0.8. Also, in series [2] (10 µg/mL), the “reduction in viral DNA” value is listed as 3.9 log10, the Ct is reported as 31.2 ± 3.7 and the “−ΔCt” value is −13.1 ± 1.6. In series [2], the activity at 0.1 µg/mL was determined as 70.7 ± 9.2%, the activity at 1 µg/mL turned out to be 0.481 ± 0.06%, the activity at 10 µg/mL came to 0.0114 ± 0.001% and the log reduction at 0.1 µg/mL came to 0.15 ± 0.02. In series [2], the log reduction at 1 µg/mL turned out to be 2.3 ± 0.3 and the log reduction at 10 µg/mL is 3.9 ± 0.5. Besides, in series [4], the concentration for half-maximal inhibition (IC50) is 47.2 µg/mL and 100 µM; the “Pretreatment of Cells SI” value is 4.2 and 4.2 ± 0.6. Moreover, in series [5], the IC50 was 20.2 µg/mL and 43 µM; the “Treatment of Infected Cells SI” value turned out to be 9.8 ± 1.2.
